# Patent US20250368678A1, “19-NOR-C3,3-DISUBSTITUTED C21-AZACYCLO-S[…] AND METHOD FOR USING SAME” (SHANDONG LUYE PHARMACEUTICAL CO., LTD., priority 2022, published 2025)
# Target: T1, α4β3δ GABA receptors (α4β3δ-HEK-FlpIn-TRex stable cell strain) (Homo sapiens, UniProt P28472+P48169)
# T1 construct: expressed in transfected cells
# Assay: Whole-cell patch clamp, extrasynaptic functional activity (positive allosteric regulation of GABA-induced current)
# Format: cell-based
# Details: patch clamp -60 mV, GABA at EC10-20, α4β3δ-HEK-FlpIn-TRex cells
# Method: (§1) The α4β3δ-HEK-FlpIn-TRex stable cell strain was cultured in DMEM+10% FBS complete culture medium, with the selective antibiotics being 10 μg/mL Blasticidin, 100 µg/mL Zeocin, 100 µg/mL Hygromycin, and 0.2 μg/mL Puromycin. The α1β2γ2-CHO-TRex stable cell strain was cultured in DMEM/F12+10% FBS complete culture medium, with the selective antibiotics being 10 μg/mL Blasticidin, 100 μg/mL Zeocin, 300 μg/mL Hygromycin, and […] Puromycin.
# (§2) The day before the patch clamp experiment, cells were seeded onto 12 mm polylysine-coated coverslips and then cultured in 35 mm culture dishes, and tetracycline ([…]) was added to induce the expression of GABA receptors. The extracellular fluid had the following composition (in mM): 140 NaCl, 3 KCl, 1.5 MgCl2, 2 CaCl2, 10 HEPES, and 10 Glucose. After thorough mixing, NaOH was added to adjust the pH to 7.4, and sucrose was added to adjust the osmotic pressure to 300-320 mOsm. The fluid was stored at 4° C. The electrode internal solution had the following composition (in mM): 145 KCl, 1 MgCl2, 5 EGTA, 10 HEPES, and 5 MgATP. After thorough mixing, KOH was added to adjust the pH to 7.3, and sucrose was added to adjust the osmotic pressure to 290-300 mOsm. The solution was filtered through a […] before use.
# (§3) Whole-cell patch clamp recording was mainly employed in this experiment. The membrane potential was clamped at −60 mV, and receptors were activated using GABA at an EC10-20 concentration ([…]). The test compounds were dissolved in 0.1% DMSO, and perfusion was performed for 30 s prior to GABA stimulation. Finally, the positive allosteric regulating effects of the test compounds on α1β2γ2 or α4β3δ were determined.
# (§4) The experimental result for each concentration was expressed as a fold increase in the GABA-induced current caused by the compound. […] At least 5 concentrations are tested to obtain a complete EC50 curve and EC50 values. All experiments were repeated on no less than 3 cells, and data processing was completed using GraphPad prism software. The dose-response curves were fitted using the Hill equation, and the half-maximal activating concentration EC50 and Emax were finally obtained.
# T1 sequence (P48169 36-554): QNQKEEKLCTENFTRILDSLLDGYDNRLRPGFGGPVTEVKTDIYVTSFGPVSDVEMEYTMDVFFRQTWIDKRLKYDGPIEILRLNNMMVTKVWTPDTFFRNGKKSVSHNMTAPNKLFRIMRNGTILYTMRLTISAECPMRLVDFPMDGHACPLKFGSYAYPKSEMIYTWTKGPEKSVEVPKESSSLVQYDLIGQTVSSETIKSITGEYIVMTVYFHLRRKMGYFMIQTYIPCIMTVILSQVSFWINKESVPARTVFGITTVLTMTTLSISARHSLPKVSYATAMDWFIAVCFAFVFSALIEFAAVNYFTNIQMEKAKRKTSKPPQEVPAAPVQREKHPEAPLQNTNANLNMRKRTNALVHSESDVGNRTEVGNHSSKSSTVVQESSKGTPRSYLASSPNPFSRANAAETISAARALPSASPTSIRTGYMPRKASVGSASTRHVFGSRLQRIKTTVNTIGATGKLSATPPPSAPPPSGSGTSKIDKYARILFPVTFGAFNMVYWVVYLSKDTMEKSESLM
# T1 sequence (P28472 26-473): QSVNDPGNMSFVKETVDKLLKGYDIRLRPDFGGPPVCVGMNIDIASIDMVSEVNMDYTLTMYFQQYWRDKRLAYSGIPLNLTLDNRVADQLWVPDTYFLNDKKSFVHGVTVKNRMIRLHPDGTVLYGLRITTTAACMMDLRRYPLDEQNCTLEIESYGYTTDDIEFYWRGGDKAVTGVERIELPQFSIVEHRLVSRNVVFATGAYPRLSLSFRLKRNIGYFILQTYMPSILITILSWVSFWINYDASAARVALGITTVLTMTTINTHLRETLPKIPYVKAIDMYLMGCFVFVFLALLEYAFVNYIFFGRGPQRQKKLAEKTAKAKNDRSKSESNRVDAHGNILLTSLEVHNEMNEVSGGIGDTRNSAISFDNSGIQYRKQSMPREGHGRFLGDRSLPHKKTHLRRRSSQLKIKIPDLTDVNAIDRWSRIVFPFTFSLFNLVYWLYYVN
# T1 sequence (O14764 25-452 partner): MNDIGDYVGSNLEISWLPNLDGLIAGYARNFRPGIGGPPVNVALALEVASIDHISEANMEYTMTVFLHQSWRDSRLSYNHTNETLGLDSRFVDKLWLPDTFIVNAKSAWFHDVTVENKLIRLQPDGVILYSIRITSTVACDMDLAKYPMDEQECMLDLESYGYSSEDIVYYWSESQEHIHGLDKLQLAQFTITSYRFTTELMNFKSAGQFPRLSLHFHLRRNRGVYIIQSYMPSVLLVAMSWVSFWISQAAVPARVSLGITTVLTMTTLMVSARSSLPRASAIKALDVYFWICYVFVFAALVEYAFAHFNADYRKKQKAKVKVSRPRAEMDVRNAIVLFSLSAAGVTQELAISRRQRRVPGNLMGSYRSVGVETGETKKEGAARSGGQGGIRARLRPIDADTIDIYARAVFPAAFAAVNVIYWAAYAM
SMILES,EC50 [nM],Emax [%]
C[C@@]1(O)CC[C@H]2[C@H](CC[C@@H]3[C@@H]2CC[C@]2(C)[C@@H](C(=O)Cn4cnn(-c5ccc(F)cc5F)c4=O)CC[C@@H]32)C1 [Compound 25],89,542
C[C@@]1(O)CC[C@H]2[C@H](CC[C@@H]3[C@@H]2CC[C@]2(C)[C@@H](C(=O)Cn4cnn(-c5cc(Cl)ccn5)c4=O)CC[C@@H]32)C1 [Compound 26],–,589
C[C@@]1(O)CC[C@H]2[C@H](CC[C@@H]3[C@@H]2CC[C@]2(C)[C@@H](C(=O)Cn4cnn(-c5cccc(F)c5F)c4=O)CC[C@@H]32)C1 [Compound 27],42,526
C[C@@]1(O)CC[C@H]2[C@H](CC[C@@H]3[C@@H]2CC[C@]2(C)[C@@H](C(=O)Cn4cnn(-c5cc(F)cc(F)c5)c4=O)CC[C@@H]32)C1 [Compound 28],35,441

# Tested on: not listed separately
# Assay: In vitro liver microsomal stability assay, human
# Format: in vitro ADME
# Details: Human liver microsomes
# Method: (§5) 1) Preparation of working solutions of test samples: The test samples were diluted with acetonitrile to 100 M.
# (§6) 2) Preparation of a working solution of liver microsomes: liver microsomes were diluted with 100 mM phosphate-buffered saline to 0.56 mg/mL.
# (§7) 3) Preparation of a working solution of reduced nicotinamide adenine dinucleotide (NADPH): A proper amount of NADPH was weighed out and diluted with phosphate-buffered saline to 20 mM, and an equal volume of a 60 mM MgCl2 solution was added.
# (§8) 4) Preparation of a stop solution: Tolbutamide was diluted with acetonitrile to 20 ng/mL, serving as a stop solution containing an internal standard.
# (§9) 1) Incubation anti-adsorption EP tubes were prepared and labeled with species, test/control sample, time points (0, 5, 10, 20, 30, 60 min, Blank60, and NCF60), etc.
# (§10) 2) 2 L of test or control sample working solution, diluted with acetonitrile to 100 M, and 178 L of liver microsome working solution were added to each tube. For the Blank60 tube, 2 L of acetonitrile was added instead of a test sample. The tubes were pre-incubated in a 37° C. water bath for about 10 min, with each sample tested in triplicate.
# (§11) 3) After the pre-incubation was complete, 20 L of NADPH working solution was added to each tube except for the 0 min and NCF60 tubes to start reactions, and 20 L of phosphate-buffered saline (containing 30 mM MgCl2) was added to the NCF60 tube. In the incubation system, the final concentrations of the test and control samples were 1 M, the final concentration of liver microsomes was 0.5 mg/mL, the final concentration of NADPH was 1 mM, and the final concentration of MgCl2 was 3 mM.
# (§12) 4) For the 0 min sample, 600 L of stop solution was added before adding the NADPH working solution. After each sample was incubated for its respective time, 600 L of stop solution was added to stop the reaction.
# (§13) 5) After the reaction was stopped, each sample was vortexed for 30 s and then centrifuged at 13,500 rpm for 10 min. 100 L of the supernatant was transferred to an EP tube, and 100 L Milli-Q water was added. The mixture was well mixed by vortexing and analyzed by LC-MS/MS.
# (§14) 6) Testosterone and dextromethorphan were used as positive control samples under the same conditions to assess the stability and reliability of the system.
# (§15) Parameters of the test samples, including their half-lives, intrinsic clearance rates in liver microsomes, and hepatic intrinsic clearance rates, were calculated based on the percentage of test sample remaining.
SMILES,CLint scaled at 1 µM [mL/min/kg],half-life at 1 µM [min],T1/2 [min]
C[C@@]1(O)CC[C@H]2[C@H](CC[C@@H]3[C@@H]2CC[C@]2(C)[C@@H](C(=O)Cn4cnn(-c5ccc(F)cc5F)c4=O)CC[C@@H]32)C1 [Compound 25],25,49.5,–
C[C@@]1(O)CC[C@H]2[C@H](CC[C@@H]3[C@@H]2CC[C@]2(C)[C@@H](C(=O)Cn4cnn(-c5cc(Cl)ccn5)c4=O)CC[C@@H]32)C1 [Compound 26],18,–,68.6
C[C@@]1(O)CC[C@H]2[C@H](CC[C@@H]3[C@@H]2CC[C@]2(C)[C@@H](C(=O)Cn4cnn(-c5cccc(F)c5F)c4=O)CC[C@@H]32)C1 [Compound 27],14,91.2,–
C[C@@]1(O)CC[C@H]2[C@H](CC[C@@H]3[C@@H]2CC[C@]2(C)[C@@H](C(=O)Cn4cnn(-c5cc(F)cc(F)c5)c4=O)CC[C@@H]32)C1 [Compound 28],21,58.2,–

# Same assay, conditions: Human liver microsomes 0.5 mg/mL, NADPH
row,SMILES,Remaining amount % at 60 min [%]
1,C[C@@]1(O)CC[C@H]2[C@H](CC[C@@H]3[C@@H]2CC[C@]2(C)[C@@H](C(=O)Cn4cnn(-c5ccc(F)cc5F)c4=O)CC[C@@H]32)C1 [Compound 25],42
2,C[C@@]1(O)CC[C@H]2[C@H](CC[C@@H]3[C@@H]2CC[C@]2(C)[C@@H](C(=O)Cn4cnn(-c5cc(Cl)ccn5)c4=O)CC[C@@H]32)C1 [Compound 26],53.7
3,C[C@@]1(O)CC[C@H]2[C@H](CC[C@@H]3[C@@H]2CC[C@]2(C)[C@@H](C(=O)Cn4cnn(-c5cccc(F)c5F)c4=O)CC[C@@H]32)C1 [Compound 27],64.13
4,C[C@@]1(O)CC[C@H]2[C@H](CC[C@@H]3[C@@H]2CC[C@]2(C)[C@@H](C(=O)Cn4cnn(-c5cc(F)cc(F)c5)c4=O)CC[C@@H]32)C1 [Compound 28],61.6

# Same assay, conditions: Human liver microsomes; read-out: CLint(mic)
row,SMILES,microsomal CLint at 1 µM [µL/min/mg]
1,C[C@@]1(O)CC[C@H]2[C@H](CC[C@@H]3[C@@H]2CC[C@]2(C)[C@@H](C(=O)Cn4cnn(-c5ccc(F)cc5F)c4=O)CC[C@@H]32)C1 [Compound 25],28
2,C[C@@]1(O)CC[C@H]2[C@H](CC[C@@H]3[C@@H]2CC[C@]2(C)[C@@H](C(=O)Cn4cnn(-c5cc(Cl)ccn5)c4=O)CC[C@@H]32)C1 [Compound 26],20
3,C[C@@]1(O)CC[C@H]2[C@H](CC[C@@H]3[C@@H]2CC[C@]2(C)[C@@H](C(=O)Cn4cnn(-c5cccc(F)c5F)c4=O)CC[C@@H]32)C1 [Compound 27],15
4,C[C@@]1(O)CC[C@H]2[C@H](CC[C@@H]3[C@@H]2CC[C@]2(C)[C@@H](C(=O)Cn4cnn(-c5cc(F)cc(F)c5)c4=O)CC[C@@H]32)C1 [Compound 28],24

# Target: T2, α1β2γ2 GABA receptors (α1β2γ2-CHO-TRex stable cell strain) (Homo sapiens, UniProt P14867+P47870)
# T2 construct: expressed in transfected cells
# T2 sequence (P14867 28-456): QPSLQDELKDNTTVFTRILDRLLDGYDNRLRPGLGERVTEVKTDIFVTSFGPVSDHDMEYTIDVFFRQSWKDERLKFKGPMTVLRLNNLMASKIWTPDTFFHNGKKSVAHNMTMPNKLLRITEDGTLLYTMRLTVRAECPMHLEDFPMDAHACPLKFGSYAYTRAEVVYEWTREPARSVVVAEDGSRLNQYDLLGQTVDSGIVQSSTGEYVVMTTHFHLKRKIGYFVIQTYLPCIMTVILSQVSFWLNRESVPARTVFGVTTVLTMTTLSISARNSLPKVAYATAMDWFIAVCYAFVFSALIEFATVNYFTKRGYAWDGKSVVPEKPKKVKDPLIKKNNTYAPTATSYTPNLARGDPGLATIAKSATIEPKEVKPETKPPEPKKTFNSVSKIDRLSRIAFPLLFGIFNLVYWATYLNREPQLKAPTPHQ
# T2 sequence (P47870 25-512 limits assumed): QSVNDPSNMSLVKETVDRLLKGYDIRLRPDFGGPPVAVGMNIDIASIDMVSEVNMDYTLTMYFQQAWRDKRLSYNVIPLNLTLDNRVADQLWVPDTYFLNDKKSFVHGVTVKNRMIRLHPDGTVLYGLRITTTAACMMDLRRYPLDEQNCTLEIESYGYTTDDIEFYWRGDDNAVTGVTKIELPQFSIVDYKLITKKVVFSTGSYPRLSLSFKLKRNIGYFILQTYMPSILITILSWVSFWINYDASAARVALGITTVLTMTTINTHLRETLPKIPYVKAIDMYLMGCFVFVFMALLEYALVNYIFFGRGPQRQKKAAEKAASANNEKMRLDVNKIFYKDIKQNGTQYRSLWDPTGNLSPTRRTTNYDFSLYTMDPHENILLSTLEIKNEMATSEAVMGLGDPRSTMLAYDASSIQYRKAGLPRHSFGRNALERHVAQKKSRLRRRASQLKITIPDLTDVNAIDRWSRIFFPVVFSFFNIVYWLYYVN
# T2 sequence (P18507 40-475 partner): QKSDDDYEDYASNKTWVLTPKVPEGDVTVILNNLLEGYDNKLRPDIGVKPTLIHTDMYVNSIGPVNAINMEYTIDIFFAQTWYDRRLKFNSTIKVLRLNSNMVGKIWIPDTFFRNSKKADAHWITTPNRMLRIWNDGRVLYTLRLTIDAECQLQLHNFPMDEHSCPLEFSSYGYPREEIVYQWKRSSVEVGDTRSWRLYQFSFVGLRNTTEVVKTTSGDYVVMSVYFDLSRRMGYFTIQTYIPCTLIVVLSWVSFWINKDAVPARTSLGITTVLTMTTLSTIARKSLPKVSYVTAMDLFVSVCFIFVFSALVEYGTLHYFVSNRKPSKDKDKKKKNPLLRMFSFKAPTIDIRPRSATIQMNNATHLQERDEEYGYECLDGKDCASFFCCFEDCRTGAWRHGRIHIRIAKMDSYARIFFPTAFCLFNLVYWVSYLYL
# Assay: Whole-cell patch clamp, intrasynaptic functional activity (positive allosteric regulation of GABA-induced current)
# Format: cell-based
# Details: patch clamp -60 mV, GABA at EC10-20, α1β2γ2-CHO-TRex cells
# Method: as §1, §2, §3, §4
SMILES,EC50 [nM],Emax [%]
C[C@@]1(O)CC[C@H]2[C@H](CC[C@@H]3[C@@H]2CC[C@]2(C)[C@@H](C(=O)Cn4cnn(-c5ccc(F)cc5F)c4=O)CC[C@@H]32)C1 [Compound 25],784,692
C[C@@]1(O)CC[C@H]2[C@H](CC[C@@H]3[C@@H]2CC[C@]2(C)[C@@H](C(=O)Cn4cnn(-c5cc(Cl)ccn5)c4=O)CC[C@@H]32)C1 [Compound 26],–,624
C[C@@]1(O)CC[C@H]2[C@H](CC[C@@H]3[C@@H]2CC[C@]2(C)[C@@H](C(=O)Cn4cnn(-c5cccc(F)c5F)c4=O)CC[C@@H]32)C1 [Compound 27],126,445
C[C@@]1(O)CC[C@H]2[C@H](CC[C@@H]3[C@@H]2CC[C@]2(C)[C@@H](C(=O)Cn4cnn(-c5cc(F)cc(F)c5)c4=O)CC[C@@H]32)C1 [Compound 28],154,–

# Tested on: not listed separately
# Assay: In vitro liver microsomal stability assay, rat
# Format: in vitro ADME
# Details: Rat liver microsomes
# Method: as §5, §6, §7, §8, §9, §10, §11, §12, §13, §14, §15
SMILES,CLint scaled at 1 µM [mL/min/kg],half-life at 1 µM [min],T1/2 [min]
C[C@@]1(O)CC[C@H]2[C@H](CC[C@@H]3[C@@H]2CC[C@]2(C)[C@@H](C(=O)Cn4cnn(-c5ccc(F)cc5F)c4=O)CC[C@@H]32)C1 [Compound 25],104,24.1,–
C[C@@]1(O)CC[C@H]2[C@H](CC[C@@H]3[C@@H]2CC[C@]2(C)[C@@H](C(=O)Cn4cnn(-c5cc(Cl)ccn5)c4=O)CC[C@@H]32)C1 [Compound 26],120,–,20.8
C[C@@]1(O)CC[C@H]2[C@H](CC[C@@H]3[C@@H]2CC[C@]2(C)[C@@H](C(=O)Cn4cnn(-c5cccc(F)c5F)c4=O)CC[C@@H]32)C1 [Compound 27],122,20.4,–
C[C@@]1(O)CC[C@H]2[C@H](CC[C@@H]3[C@@H]2CC[C@]2(C)[C@@H](C(=O)Cn4cnn(-c5cc(F)cc(F)c5)c4=O)CC[C@@H]32)C1 [Compound 28],43,57.8,–

# Same assay, conditions: Rat liver microsomes 0.5 mg/mL, NADPH
row,SMILES,Remaining amount % at 60 min [%]
1,C[C@@]1(O)CC[C@H]2[C@H](CC[C@@H]3[C@@H]2CC[C@]2(C)[C@@H](C(=O)Cn4cnn(-c5ccc(F)cc5F)c4=O)CC[C@@H]32)C1 [Compound 25],16.2
2,C[C@@]1(O)CC[C@H]2[C@H](CC[C@@H]3[C@@H]2CC[C@]2(C)[C@@H](C(=O)Cn4cnn(-c5cc(Cl)ccn5)c4=O)CC[C@@H]32)C1 [Compound 26],12.7
3,C[C@@]1(O)CC[C@H]2[C@H](CC[C@@H]3[C@@H]2CC[C@]2(C)[C@@H](C(=O)Cn4cnn(-c5cccc(F)c5F)c4=O)CC[C@@H]32)C1 [Compound 27],14.60
4,C[C@@]1(O)CC[C@H]2[C@H](CC[C@@H]3[C@@H]2CC[C@]2(C)[C@@H](C(=O)Cn4cnn(-c5cc(F)cc(F)c5)c4=O)CC[C@@H]32)C1 [Compound 28],48.8

# Same assay, conditions: Rat liver microsomes; read-out: CLint(mic)
row,SMILES,microsomal CLint at 1 µM [µL/min/mg]
1,C[C@@]1(O)CC[C@H]2[C@H](CC[C@@H]3[C@@H]2CC[C@]2(C)[C@@H](C(=O)Cn4cnn(-c5ccc(F)cc5F)c4=O)CC[C@@H]32)C1 [Compound 25],58
2,C[C@@]1(O)CC[C@H]2[C@H](CC[C@@H]3[C@@H]2CC[C@]2(C)[C@@H](C(=O)Cn4cnn(-c5cc(Cl)ccn5)c4=O)CC[C@@H]32)C1 [Compound 26],67
3,C[C@@]1(O)CC[C@H]2[C@H](CC[C@@H]3[C@@H]2CC[C@]2(C)[C@@H](C(=O)Cn4cnn(-c5cccc(F)c5F)c4=O)CC[C@@H]32)C1 [Compound 27],68
4,C[C@@]1(O)CC[C@H]2[C@H](CC[C@@H]3[C@@H]2CC[C@]2(C)[C@@H](C(=O)Cn4cnn(-c5cc(F)cc(F)c5)c4=O)CC[C@@H]32)C1 [Compound 28],24
